# Experimental data as given in US20100298141A1, “SUBSTITUTED PYRIDINE N-OXIDE HERBICIDES” (E. I. DU PONT DE NEMOURS AND COMPANY, priority 2007, published 2010).
# Tests used:
# [1] = test system: giant foxtail; test: Test A pre-/postemergence greenhouse test; assay type: in vivo, Setaria faberi; conditions: for Foxtail, Giant plant response rating: 0 to 100 scale
# How it was run: (§1)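 Seeds sown in a loam soil–sand blend got a preemergence directed soil spray of compound in a non-phytotoxic solvent mixture containing surfactant. Postemergence sprays of the same formulation went at the same time onto plants 2–10 cm tall at the one- to two-leaf stage. Injury was scored visually against untreated controls after about ten days in the greenhouse.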
# [2] = test system: velvetleaf; test: Test A pre-/postemergence greenhouse test; assay type: in vivo, Abutilon theophrasti; conditions: for Velvetleaf plant response rating: 0 to 100 scale
# How it was run: as §1
# [3] = test system: wheat; test: Test C pre-/postemergence test; assay type: in vivo, Triticum aestivum; conditions: for Wheat plant response rating: preemergence, scale 0 (no effect) to 100 (complete control); for Plant response rating, Wheat: scale 0 to 100, 0 no effect, 100 complete control
# How it was run: (§2)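 Test chemicals were formulated with surfactant in a non-phytotoxic solvent and sprayed both on freshly planted seeds (preemergence) and on 1- to 4-leaf plants of 2–18 cm (postemergence). Flooded-paddy pots received compound directly into 3 cm of standing water, maintained for the test.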
# [4] = test system: Russian thistle; test: Test C pre-/postemergence test; assay type: in vivo, Salsola kali; conditions: 31 g ai/ha, Preemergence; scale 0 to 100
# How it was run: as §2
# [5] = test system: common ragweed; test: Test C pre-/postemergence test; assay type: in vivo, Ambrosia elation; conditions: for Plant response rating, Ragweed: scale 0 to 100, 0 no effect, 100 complete control
# How it was run: as §2
# [6] = test system: barnyardgrass; test: Test C flooded paddy test; assay type: in vivo, Echinochloa crus-galli; conditions: Flood
# How it was run: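 Flooded 3 cm over soil; compound into paddy water; depth kept constant. Greenhouse 13–15 d.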
# [7] = test system: green foxtail; test: Test F preemergence test; assay type: in vivo, Setaria viridis; conditions: scale 0 to 100
# How it was run: (§3)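 Test chemicals in a non-phytotoxic solvent mixture containing a surfactant were applied preemergence to sown seeds or postemergence to sugarcane plants. Treated plants and controls were held in a greenhouse for 14 to 21 days, then visually evaluated against controls.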
# [8] = test system: purple nutsedge; test: Test F preemergence test; assay type: in vivo, Cyperus rotundus; conditions: scale 0 to 100
# How it was run: as §3
# [9] = test system: southern sandbur; test: Test F preemergence test; assay type: in vivo, Cenchrus echinatus; conditions: scale 0 to 100
# How it was run: as §3
# [10] = test system: annual bluegrass; test: Test F preemergence test; assay type: in vivo, Poa annua; conditions: scale 0 to 100
# How it was run: as §3
# [11] = test system: field bindweed; test: Test F preemergence test; assay type: in vivo, Convolvulus arvensis; conditions: scale 0 to 100
# How it was run: as §3
# [12] = test system: common mallow; test: Test F preemergence test; assay type: in vivo, Malva sylvestris; conditions: scale 0 to 100
# How it was run: as §3
# [13] = Postemergence, 125 g ai/ha, 0 is no effect, 100 is complete control
# [14] = Postemergence, 500 g ai/ha, 0 is no effect, 100 is complete control
# [15] = Preemergence, 125 g ai/ha, 0 no effect, 100 complete control
# [16] = Preemergence, 500 g ai/ha, 0 to 100 scale where 0 is no effect and 100 is complete control
compound,measurement,setting,value
Cn1nc(C(F)(F)F)c(C[S+]([O-])c2cccc[n+]2[O-])c1OC(F)F (stereo not shown) [Compound 3],"Foxtail, Giant plant response rating",[1]; [13],80
same,"Foxtail, Giant plant response rating",[1]; [14],90
same,"Foxtail, Giant plant response rating",[1]; [15],100
same,"Plant response rating, Foxtail, Giant",[1]; [16],100
same,Velvetleaf plant response rating,[2]; [13],50
same,Velvetleaf plant response rating,[2]; [14],90
same,Velvetleaf plant response rating,[2]; [15],70
same,"Plant response rating, Velvetleaf",[2]; [16],90
same,Wheat plant response rating,[3]; 62 g ai/ha,20
same,"Plant response rating (0 to 100), Wheat","[3]; Postemergence, 31 g ai/ha",0
same,"Plant response rating (0 to 100), Wheat","[3]; Postemergence, 62 g ai/ha",0
same,"Plant response rating, Wheat","[3]; Postemergence, 125 g ai/ha",0
same,"Plant response rating, Wheat","[3]; Postemergence, 250 g ai/ha",0
same,"Plant response rating (0 to 100), Wheat","[3]; Preemergence, 250 g ai/ha",80
same,Wheat plant response rating,[3]; 125 g ai/ha,70
same,Russian Thistle plant response rating,[4],0
same,Ragweed plant response rating,"[5]; 31 g ai/ha, Preemergence, scale 0 to 100",100
same,Ragweed plant response rating,"[5]; 62 g ai/ha, preemergence, scale 0 (no effect) to 100 (complete control)",100
same,"Plant response rating (0 to 100), Ragweed","[5]; Postemergence, 31 g ai/ha",5
same,"Plant response rating (0 to 100), Ragweed","[5]; Postemergence, 62 g ai/ha",5
same,"Plant response rating, Ragweed","[5]; Postemergence, 125 g ai/ha",50
same,"Plant response rating, Ragweed","[5]; Postemergence, 250 g ai/ha",50
same,"Plant response rating (0 to 100), Ragweed","[5]; Preemergence, 250 g ai/ha",100
same,Ragweed plant response rating,"[5]; preemergence, 125 g ai/ha, scale 0 (no effect) to 100 (complete control)",100
same,"Plant response rating, Barnyardgrass","[6]; 31 g ai/ha, scale 0 to 100 (0 no effect, 100 complete control)",0
same,"Plant response rating, Barnyardgrass","[6]; 62 g ai/ha, scale 0 to 100, 0 no effect, 100 complete control, 13 to 15 days",50
same,"Plant response rating, Barnyardgrass","[6]; 125 g ai/ha, scale 0 to 100, 0 no effect, 100 complete control, 13 to 15 days",75
same,"Plant response rating, Barnyardgrass","[6]; 250 g ai/ha, scale 0 to 100 (0 no effect, 100 complete control)",85
same,"Plant response rating, Foxtail, Green","[7]; 8 g ai/ha, preemergence",0
same,"Foxtail, Green plant response rating","[7]; 62 g ai/ha, Preemergence",95
same,"Plant response rating, Foxtail, Green","[7]; Preemergence, 16 g ai/ha",40
same,"Plant response rating, Foxtail, Green","[7]; Preemergence, 31 g ai/ha",75
same,"Plant response rating, Purple Nutsedge","[8]; 8 g ai/ha, preemergence",0
same,Purple Nutsedge plant response rating,"[8]; 62 g ai/ha, Preemergence",80
same,"Plant response rating, Purple Nutsedge","[8]; Preemergence, 16 g ai/ha",60
same,"Plant response rating, Purple Nutsedge","[8]; Preemergence, 31 g ai/ha",75
same,"Plant response rating, Sandbur","[9]; 8 g ai/ha, preemergence",20
same,"Plant response rating, Sandbur","[9]; 16 g ai/ha, preemergence",65
same,Sandbur plant response rating,"[9]; 62 g ai/ha, Preemergence",95
same,"Plant response rating, Sandbur","[9]; Preemergence, 31 g ai/ha",90
same,"Plant response rating, Bluegrass","[10]; 8 g ai/ha, preemergence",0
same,Bluegrass plant response rating,"[10]; 62 g ai/ha, Preemergence",50
same,"Plant response rating, Bluegrass","[10]; Preemergence, 16 g ai/ha",0
same,"Plant response rating, Bluegrass","[10]; Preemergence, 31 g ai/ha",50
same,"Plant response rating, Field Bindweed","[11]; 8 g ai/ha, preemergence",0
same,Field Bindweed plant response rating,"[11]; 62 g ai/ha, Preemergence",25
same,"Plant response rating, Field Bindweed","[11]; Preemergence, 16 g ai/ha",0
same,"Plant response rating, Field Bindweed","[11]; Preemergence, 31 g ai/ha",25
same,"Plant response rating, Mallow","[12]; 8 g ai/ha, preemergence",0
same,Mallow plant response rating,"[12]; 62 g ai/ha, Preemergence",75
same,"Plant response rating, Mallow","[12]; Preemergence, 16 g ai/ha",0
same,"Plant response rating, Mallow","[12]; Preemergence, 31 g ai/ha",0
